Experimental data published in patent US20230287027A1, “ADJUVANT WITH TLR4 AGONIST ACTIVITY” (Sumitomo Pharma Co., Ltd, priority 2020, published 2023).

Legend:
OVA-specific IgG2c = assay: Test 3: OVA-specific IgG2c in serum of immunized mice by ELISA; assay type: in vivo, C57BL/6 male mouse; settings: mouse, intramuscular with OVA, liposome formulation, 10 or 100 μg/mouse, two immunizations, serum one week after the additional immunization; compared with the negative control group
Description: FIG. 1 is a graph showing the results of measuring OVA-specific IgG2c in immunized mouse serum in mice to which the formulation prepared in Example 6 or 7 was intramuscularly administered, by ELISA in Test 3. The vertical axis indicates the antibody titer of OVA-specific IgG2c in serum. The horizontal axis indicates the administered sample (administered dose in parentheses). 1: negative control group (phosphate buffered saline), 2: Example 6 administration group (the compound of Example 1, 10 μg/mouse), 3: Example 6 administration group (the compound of Example 1, 100 μg/mouse), 4: Example 7 administration group (the compound of Example 2, 10 μg/mouse), 5: Example 7 administration group (the compound of Example 2, 100 μg/mouse).
FIG. 2 is a graph showing the results of measuring OVA-specific IgG2c in immunized mouse serum in mice to which the formulation prepared in Reference Example 16 or Example 6 was intramuscularly administered, by ELISA in Test 3. The vertical axis indicates the antibody titer of OVA-specific IgG2c in serum. The horizontal axis indicates the administered sample (administered dose in parentheses). […]
An equal mixture of ovalbumin (OVA) (2 mg/mL) as an antigen and the formulation prepared in Example 6, Example 7, or Reference example 16 (containing 0.2 or 2 mg/mL the compound of Example 1, Example 2, or Reference example 9) was intramuscularly administered to the gastrocnemius of a 7-week-old C57BL/6 male mouse (100 μL/mouse), which was defined as the first immunization. […] The OVA-specific IgG2c value in each serum was measured by the following ELISA method. To 96-well plate, OVA solution (SIGMA) was added, 1% Skim Milk (Wako) was added for blocking, the serum sample which was diluted with phosphate buffer solution was added, caprine antimouse IgG2c (Southern Bio) as the secondary antibody was added, SureBlue™ TMB Micrewell Peroxidase Substrate (KPL) was added, and then the product of the enzymatic reaction was quantified with a microplate reader.

spleen cell of the mouse = assay: Test 4: T cell populations in spleen cells of immunized mice by flow cytometry; assay type: in vivo; settings: intramuscular with OVA, liposome formulation, compared with the negative control group
Description: The equal mixture prepared in Test 3 of ovalbumin (OVA) (2 mg/mL) and the formulation prepared in Example 6, Example 7, or Reference example 16 (containing 0.2 or 2 mg/mL the compound of Example 1, Example 2, or Reference example 9) was administered to a mouse (100 μL/mouse). The spleen cell of the mouse was prepared, OVA and Brefeldin A (eBioscience) were added the cell, and the cell was cultured overnight. The collected cell was stained with APC-labeled antimouse CD3e antibody (Invitrogen), PerCP-labeled antimouse CD4 antibody (BioLegend), and Fixable Viability Dye eFluor™ 520 (invitorgen), and fixed with Fixation/Permeabilization buffer (Invitrogen). The cell was treated with Permeabilization buffer (Invitrogen), and then stained with antibody cocktail BV421-labeled anti-IFN-γ antibody (BioLegend), PE-Cy7-labeled anti-IL-2 antibody (eBioscience), and PE-labeled TNF-α (BioLegend). The data were taken and analyzed with FACS Cant II (BD Biosciences) and FLOWJO software (TreeStar).
Separately, the spleen cell was stained with V450-labled antimouse CD3e antibody (invitrogen), Alexa Fluor™ 647-labeled antimouse CD8 antibody (MBL), PE-labeled H-2Kb OVA Tetramer-SIINFEKL (MBL), and Fixable Viability dye eFluor 520 (invitrogen). The data were taken and analyzed with FACS Cant II (BD Biosciences) and FLOWJO software (TreeStar).
Further separately, the spleen cell was stained with V450-labeled antimouse CD3e antibody (invitrogen), Alexa Fluor™ 647-labeled antimouse CD8 antibody (MBL), PE-Cy7-labeled antimouse CD44 antibody (Invitrogen), PerCP-Cy5.5-labeled antimouse CD62L antibody (Invitrogen), and Fixable Viability dye eFluor 520 (Invitrogen). The data were taken and analyzed with FACS Cant II (BD Biosciences) and FLOWJO software (TreeStar).

human TLR4 = target: T1, human TLR4 (Homo sapiens, UniProt O00206+Q9Y6Y9); assay: Human TLR4 reporter gene assay (Test 1); assay type: cell-based; settings: HEK-Blue hTLR4 cell line, SEAP reporter, 37° C. 16-20 hours, 0.1% DMSO; concentration giving half of maximal SEAP level induced with LPS
T1 construct: host or cells: HEK-Blue hTLR4 cell line
Text: Human TLR4 Reporter Gene Assay
HEK-Blue™ hTLR4 cell line (Invivogen Corporation) is a stably co-transfected cell line which expresses human TLR4, MD2, CD14, and secretory alkaline phosphatase (SEAP) reporter gene under the transcriptional regulation of an NF-κB response element. The TLR4 expression of the cell line has been already tested by RT-PCR, flow cytometry. Transfectants with stable expression were selected using the antibiotic HEK-Blue™ Selection. TLR signaling leads to the translocation of NF-κB and the activation of the promoter results in expression of the SEAP gene. TLR4-specific activation was assessed by determining the level of SEAP produced following incubation of the cells at 37° C. for 16-20 hours with each compound prepared in Examples and Reference examples in the presence of 0.1% (v/v) DMSO. The human TLR4 activity for the present compound was assessed by human TLR4 reporter gene assay, and the concentration of the compound concentration which produced half of the maximal level of SEAP induced with lipopolysaccharide (LPS) was determined as EC50.

T1 sequence (O00206 24-839): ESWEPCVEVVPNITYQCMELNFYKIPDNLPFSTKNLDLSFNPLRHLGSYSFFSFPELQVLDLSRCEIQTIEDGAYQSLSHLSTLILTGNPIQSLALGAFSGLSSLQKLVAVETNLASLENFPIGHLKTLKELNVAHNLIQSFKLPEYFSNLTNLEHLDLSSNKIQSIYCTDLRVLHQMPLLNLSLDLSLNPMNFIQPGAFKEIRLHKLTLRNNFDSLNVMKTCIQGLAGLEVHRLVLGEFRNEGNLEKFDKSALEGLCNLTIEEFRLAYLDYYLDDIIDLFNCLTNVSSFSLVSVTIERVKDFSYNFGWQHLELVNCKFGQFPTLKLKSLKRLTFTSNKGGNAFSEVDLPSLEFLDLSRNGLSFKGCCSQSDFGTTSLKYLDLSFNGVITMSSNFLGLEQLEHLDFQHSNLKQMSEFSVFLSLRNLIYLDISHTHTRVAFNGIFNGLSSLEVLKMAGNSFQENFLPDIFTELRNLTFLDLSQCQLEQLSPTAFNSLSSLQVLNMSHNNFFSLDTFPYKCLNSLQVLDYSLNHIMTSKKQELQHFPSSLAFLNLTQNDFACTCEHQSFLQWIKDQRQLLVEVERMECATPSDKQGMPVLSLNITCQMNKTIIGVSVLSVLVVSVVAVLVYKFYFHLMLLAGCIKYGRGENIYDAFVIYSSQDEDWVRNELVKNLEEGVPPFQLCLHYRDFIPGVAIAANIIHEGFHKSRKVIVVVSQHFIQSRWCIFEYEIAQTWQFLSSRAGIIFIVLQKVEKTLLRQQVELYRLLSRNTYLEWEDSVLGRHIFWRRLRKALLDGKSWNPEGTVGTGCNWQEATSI
T1 sequence (Q9Y6Y9 17-160 limits assumed): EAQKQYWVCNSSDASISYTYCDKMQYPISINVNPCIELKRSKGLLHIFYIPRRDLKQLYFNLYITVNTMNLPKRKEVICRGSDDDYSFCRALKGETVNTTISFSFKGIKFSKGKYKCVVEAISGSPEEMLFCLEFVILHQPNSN

EC50 (human TLR4)	SMILES	OVA-specific IgG2c induction (OVA-specific IgG2c)	percentage of CD8-positive effector memory T-lymphocyte (spleen cell of the mouse)	percentage of MHC-restricted OVA-specific CD8-positive T-lymphocyte (OVA tetramer-positive CD8T cell) (spleen cell of the mouse)	percentage of OVA-specific type 1 helper T-cell (spleen cell of the mouse)
43.5 nM	CCCCCCCCCCC[C@H](CC(=O)NC1C(OC[C@@H](NC(=O)C[C@@H](CCCCCCCCCCC)OC(=O)CCCCCCCCC)C(=O)O)OC(CO)C(O)C1OC(=O)C[C@@H](CCCCCCCCCCC)OC(=O)CCCCCCCCc1ccccc1)OC(=O)CCCCCCCCC (stereo partly drawn) [Example 1, (2R)-2-{[(3R)-3-(Decanoyloxy)tetradecanoyl]amino}-3-{[3-{[(3R)-3-(decanoyloxy)tetradecanoyl]amino}-5-hydroxy-6-(hydroxymethyl)-4-({(3R)-3-[(9-phenylnonanoyl)oxy]tetradecanoyl}oxy)oxan-2-yl]oxy}propanoic acid]	significantly strong	significantly increased	significantly increased	significantly increased
15 nM	CCCCCCCCCCC[C@H](CC(=O)NC1C(OC[C@H](NC(=O)C[C@@H](CCCCCCCCCCC)OC(=O)CCCCCCCCC)C(=O)O)OC(CO)C(O)C1OC(=O)C[C@@H](CCCCCCCCCCC)OC(=O)CCCCCCCCc1ccccc1)OC(=O)CCCCCCCCC (stereo partly drawn) [Example 2, (2S)-2-{[(3R)-3-(decanoyloxy)tetradecanoyl]amino}-3-{[3-{[(3R)-3-(decanoyloxy)tetradecanoyl]amino}-5-hydroxy-6-(hydroxymethyl)-4-({(3R)-3-[(9-phenylnonanoyl)oxy]tetradecanoyl}oxy)oxan-2-yl]oxy}propanoic acid]	significantly strong	significantly increased	significantly increased	significantly increased
43.9 nM	CCCCCCCCCCC[C@H](CC(=O)NC1C(OC[C@@H](NC(=O)C[C@@H](CCCCCCCCCCC)OC(=O)CCCCCCCCC)C(=O)O)OC(CO)C(OP(=O)(O)O)C1OC(=O)C[C@@H](CCCCCCCCCCC)OC(=O)CCCCCCCCc1ccccc1)OC(=O)CCCCCCCCC (stereo partly drawn) [Reference example 9, (2R)-2-{[(3R)-3-(Decanoyloxy)tetradecanoyl]amino}-3-{[3-{[(3R)-3-(decanoyloxy)tetradecanoyl]amino}-6-(hydroxymethyl)-4-({(3R)-3-[(9-phenylnonanoyl)oxy]tetradecanoyl}oxy)-5-(phosphonooxy)oxan-2-yl]oxy}propanoic acid, reference compound]	significantly strong	significantly increased	significantly increased	significantly increased
